Where two headings read alike, the source gives them in different places.
What was measured:
HIV-1LAl = test: Anti-HIV (in PBM cells) assay, reverse transcriptase readout; format: cell-based
Method: Anti-HIV-1 activity of the compounds was determined in human peripheral blood mononuclear (PBM) cells as described previously (Schinazi […]., Cannon D., Mathis R., Lloyd R. M. Jr., […]., St. Clair M., Wilson J., Furman P. A., Painter G., Choi […]. Antimicrob. Agents Chemother. 1992, 36, 2423; Schinazi […]., Cannon D., Xie […]., Smith G., Hahn E. Antimicrob. Agents Chemother. 1990, 34, 1061). Stock solutions ([…]) of the compounds were prepared in sterile DMSO and then diluted to the desired concentration in growth medium. […] Virus obtained from the cell supernatant was quantified on day 6 after infection by a reverse transcriptase assay using (rA)n.(dT)12.18 as template-primer. […] AZT was included as positive control. The antiviral EC50 and EC90 were obtained from the concentration-response curve using the median effective method described previously (Chou […]. Enzyme Regul. 1984, 22, 27-55; Belen'kii M. S. & Schinazi R. F. Antiviral Res. 1994, 25, 1-11).

HIV-1RF = test: Anti-HIV (in MT-2 cells) assay, viral RNA accumulation; format: cell-based; details: EC90, MT-2 cells, read-out: Anti-HIV-1 activity in different cells (EC90, μM) MT-2
Method: (§1) In a second antiviral testing system, the potency of the compounds was determined by measurement of viral RNA accumulation in HIV-1RF infected MT-2 cells (Bacheler L T, Paul M, Otto M J, Jadhav P K, Stone B A & Miller J A (1994) An assay for HIV RNIn infected cell lysates, and its use for rapid evaluation of antiviral efficacy. Antivir. Chem. Chemother. 5:111–121). The virus titer was established to determine the dilution producing 15 to 30 ng/RNA per well of HIV RNIn 3 days of infection. HIV-1 RNA was quantified using biotinylated capture and alkaline phosphatase-derivatized reporter oligonucleotides as described previously (Charvet A-S, Camplo M, Faury P, Graciet J C, Mourier N, Chermann J C & Kraus J L (1994) Inhibition of human immunodeficiency virus type 1 replication by phosphonoformate- and phosphonoacetate-2′,3′-dideoxy-3′-thiacytidine conjugates. J. Med. Chem. 37:2216–2223). In a third system, the effect of analogs on the replication of HIV-1NL4-3 was determined via the InterCompany Consortium consensus p24 assay as previously described (Jadhav P K & MacKay M F (1997) Cyclic urea amide: HIV-1 protease inhibitors with low nanomolar potency against both wild types and protease inhibitor resistant mutants of HIV. J. Med. Chem. 40:181–190). Recombinant viruses were recovered by transfecting the appropriate NL4-3 plasmid by lipofection. Virus stocks recovered 7 to 10 days post-transfection were titered on MT-4 cells to determine if the dilution produced 1,000 to 3,000 ng p24 in 4 days. This dilution was then used in drug susceptibility assays, where drug was added 24 h post infection of cells, and p24 quantified by ELISA 3 days later.

HIV-1NL4-3 = test: Anti-HIV assay in MT-4 cells, consensus p24 assay; format: cell-based; details: Human immunodeficiency virus 1, MT4, Table 1, read-out: Anti-HIV-1 activity in different cells (EC90, μM) MT-4
Method: as §1

[1] = Cytotoxicity assay in PBM cells; format: cell-based, human; details: human, human PBM cells, Table 1, read-out: Cytotoxicity in different cells (IC50, μM) PBM
Method: (§2) The toxicity of the compounds was assessed in Vero, human PBM, CEM (human lymphoblastoid), MT-2, and HepG2 cells, as described previously (Schinazi […]., Cannon D. L., Xie […]., Smith […]. […] Cycloheximide was included as positive cytotoxic control, and untreated cells exposed to solvent were included as negative controls. The cytotoxicity IC50 was obtained from the concentration-response curve using the median effective method described previously (Chou […]. […] Belen'kii M. S. & Schinazi R. F.

[2] = Cytotoxicity assay in CEM cells; format: cell-based, human; details: human, CEM lymphoblastoid cells, Table 1, read-out: Cytotoxicity in different cells (IC50, μM) CEM
Method: as §2

[3] = Cytotoxicity assay in Vero cells; format: cell-based; details: African green monkey, Table 1, read-out: Cytotoxicity in different cells (IC50, μM) Vero
Method: as §2

[4] = Cytotoxicity assay in MT-2 cells; format: cell-based; details: human, Table 1, read-out: Cytotoxicity in different cells (IC50, μM) MT-2
Method: as §2

[5] = Cytotoxicity assay in HepG2 cells; format: cell-based; details: human, Table 1, read-out: Cytotoxicity in different cells (IC50, μM) HepG2
Method: as §2

human PBM cells = test: Cytotoxicity assay in PBM cells; format: cell-based
Method: as §2

[6] = tested on: CEM (human lymphoblastoid) cells; test: Cytotoxicity assay in CEM cells; format: cell-based
Method: as §2

Vero cells = test: Cytotoxicity assay in Vero cells; format: cell-based
Method: as §2

MT-2 cells = test: Cytotoxicity assay in MT-2 cells; format: cell-based
Method: as §2

HepG2 cells = test: Cytotoxicity assay in HepG2 cells; format: cell-based
Method: as §2

[7] = Table 1, read-out: Anti-HIV-1 activity in different cells (EC90, μM) PBM
[8] = Table 1, read-out: Cytotoxicity in different cells (IC50, μM) PBM
[9] = Table 1, read-out: Cytotoxicity in different cells (IC50, μM) CEM
[10] = Table 1, read-out: Cytotoxicity in different cells (IC50, μM) Vero
[11] = Table 1, read-out: Cytotoxicity in different cells (IC50, μM) MT-2
[12] = Table 1, read-out: Cytotoxicity in different cells (IC50, μM) HepG2
[13] = Table 2, read-out: Anti-HIV-1 activity in different cells (EC90, μM) PBM
[14] = Table 2, read-out: Cytotoxicity in different cells (IC50, μM) PBM
[15] = Table 2, read-out: Cytotoxicity in different cells (IC50, μM) CEM
[16] = Table 2, read-out: Cytotoxicity in different cells (IC50, μM) Vero
[17] = Table 2, read-out: Cytotoxicity in different cells (IC50, μM) MT-2
[18] = Table 2, read-out: Cytotoxicity in different cells (IC50, μM) HepG2

SMILES | EC90 (HIV-1LAl; [7]) [µM] | EC90 (HIV-1RF; Table 1) [µM] | IC50 (human PBM cells; [8]) [µM] | IC50 [6, 9] [µM] | IC50 (Vero cells; [10]) [µM] | IC50 (MT-2 cells; [11]) [µM] | IC50 (HepG2 cells; [12]) [µM] | EC90 (HIV-1LAl; [13]) [µM] | EC90 (HIV-1RF; Table 2) [µM] | IC50 (human PBM cells; [14]) [µM] | IC50 [6, 15] [µM] | IC50 (Vero cells; [16]) [µM] | IC50 (MT-2 cells; [17]) [µM] | IC50 (HepG2 cells; [18]) [µM] | further results
O=C(Nc1nc(=O)n([C@H]2CC[C@@H](CO)O2)cc1F)c1ccc(I)cc1 [Compound 10, β-D-2′,3′-Dideoxy-5-fluoro-N^4-(4-iodobenzoyl)cytidine] |  |  |  |  |  |  |  |  |  |  |  |  |  |  | EC90 (HIV-1LAl; Human immunodeficiency virus 1, PBMC, Table 1, read-out: Anti-HIV-1 activity in different cells (EC90, μM) PBM): 0.019 µM; EC90 (HIV-1RF; Human immunodeficiency virus 1, MT2, Table 1): 0.025 µM; EC90 (HIV-1NL4-3): 0.17 µM; IC50 [1]: > 100 µM; IC50 [2]: > 100 µM; IC50 [3]: > 100 µM; IC50 [4]: > 50 µM; IC50 [5]: > 100 µM
CCCC(=O)Nc1nc(=O)n([C@H]2CC[C@@H](CO)O2)cc1F [Compound 34, β-D-N^4-Butyryl-2′,3′-dideoxy-5-fluorocytidine] | 1.6 | 0.71 | 17.1 | 31.6 | 5.8 | 7.2 | 7.6 |  |  |  |  |  |  |  | 
O=C(Nc1nc(=O)n([C@H]2CC[C@@H](CO)O2)cc1F)c1ccco1 [Compound 29, β-D-2′,3′-Dideoxy-5-fluoro-N^4-(2-furoyl)cytidine] | 1.5 | 0.9 | 16.9 | 5.7 | 29.6 | > 50 | 31.1 |  |  |  |  |  |  |  | 
O=C(Nc1nc(=O)n([C@H]2C=C[C@@H](CO)O2)cc1F)c1cccnc1 [Compound 55, β-D-2, 3′-Didehydro-2′,3′-dideoxy-5-fluoro-N^4-nicotinoylcytidine] |  |  |  |  |  |  |  | 42.3 | 29 | 13.8 | 6.7 | 13.1 | > 50 | 10.3 | 
O=C(Nc1nc(=O)n([C@H]2CC[C@@H](CO)O2)cc1F)c1cccnc1 [Compound 31, β-D-2′,3′-Dideoxy-5-fluoro-N^4-(nicotinoyl)cytidine] | 0.17 | 5.9 | 8.8 | 5.5 | 28.1 | > 50 | 19.4 |  |  |  |  |  |  |  | 
O=C(Nc1nc(=O)n([C@H]2CC[C@@H](CO)O2)cc1F)c1ccccc1 [Compound 21, β-D-N^4-Benzoyl-2′,3′-dideoxy-5-fluorocytidine] | 1.29 | 1.2 | 67 | 38.5 | 5.8 | 19 | 15.3 |  |  |  |  |  |  |  | 
O=C(Nc1nc(=O)n([C@H]2CC[C@@H](CO)O2)cc1F)c1ccccc1[N+](=O)[O-] [Compound 20, β-D-2′,3′-Dideoxy-5-fluoro-N^4-(2-nitrobenzoyl)cytidine] | 1.5 | 0.7 | > 100 | > 100 | > 100 | > 50 | > 100 |  |  |  |  |  |  |  | 
COc1cccc(C(=O)Nc2nc(=O)n([C@H]3C=C[C@@H](CO)O3)cc2F)c1 [Compound 43, β-D-N^4-m-Anisoyl-2′,3′-didehydro-2′,3′-dideoxy-5-fluorocytidine] |  |  |  |  |  |  |  | 2.1 | 0.34 | 18.5 | 24.6 | > 100 | > 50 | > 100 | 
COc1ccc(C(=O)Nc2nc(=O)n([C@H]3CC[C@@H](CO)O3)cc2F)cc1 [Compound 17, β-D-N^4-p-Anisoyl-2′,3′-dideoxy-5-fluorocytidine] | 8.31 | 6 | 69.2 | 31.6 | 5.3 | 16 | 4.5 |  |  |  |  |  |  |  | 
O=C(Nc1nc(=O)n([C@H]2C=C[C@@H](CO)O2)cc1F)c1ccc([N+](=O)[O-])cc1 [Compound 45, β-D-2′,3′-Didehydro-2′,3′-dideoxy-5-fluoro-N^4-(4-nitrobenzoyl)cytidine] |  |  |  |  |  |  |  | 1.7 | 0.29 | 3.4 | 4.2 | 6.6 | > 50 | 5.6 | 
Cc1ccccc1C(=O)Nc1nc(=O)n([C@H]2C=C[C@@H](CO)O2)cc1F [Compound 50, β-D-2′,3′-Didehydro-2′,3′-dideoxy-5-fluoro-N^4-o-toluoylcytidine] |  |  |  |  |  |  |  | 56.8 | > 50 | 58.4 | 46.4 | > 100 | > 50 | > 100 | 
O=C(Nc1nc(=O)n([C@H]2C=C[C@@H](CO)O2)cc1F)c1cc2ccccc2s1 [Compound 56, β-D-2′,3′-Didehydro-2′,3′-dideoxy-5-fluoro-N-(benzo[b]thiophene-2-carbonyl)cytidine] |  |  |  |  |  |  |  | 0.29 | 0.3 | 2.2 | 2.8 | 5.6 | > 50 | 1.3 | 
O=C(Nc1nc(=O)n([C@H]2C=C[C@@H](CO)O2)cc1F)c1cccs1 [Compound 54, β-D-2′,3′-Didehydro-2′,3′-dideoxy-5-fluoro-N^4-(2-thiophenecarbonyl)cytidine] |  |  |  |  |  |  |  | 1.6 | 1.5 | 10.2 | 3.9 | 4.8 | > 50 | 2.3 | 
Cc1ccccc1C(=O)Nc1nc(=O)n([C@H]2CC[C@@H](CO)O2)cc1F [Compound 24, β-D-2′,3′-Dideoxy-5-fluoro-N^4-o-toluoylcytidine] | 1.2 | 6.8 | 20.6 | 22.5 | 39.6 | > 50 | > 100 |  |  |  |  |  |  |  | 
O=C(Nc1nc(=O)n([C@H]2C=C[C@@H](CO)O2)cc1F)c1ccccc1[N+](=O)[O-] [Compound 47, β-D-2′,3′-Didehydro-2′,3′-dideoxy-5-fluoro-N^4-(2-nitrobenzoyl)cytidine] |  |  |  |  |  |  |  | 39.9 | > 50 | 80 | > 100 | > 100 | > 50 | > 100 | 
